Results on six compounds are retold here after patent US8957042B2, “Cancer treatment targeting non-coding RNA overexpression” (The Texas A&M University System, priority 2012, dated 2015).

Series [1] deals with miR-21 and miR-181b. The experiment in a line: Oncogenic miR levels in Panc28 cells (real time PCR). Type of series: cell-based, human. To be noted: 100 nM siRNA. As to the method: (§1) Panc28 and L3.6pL pancreatic cancer cell lines were seeded (6×10^4 per well) in 6-well plates in DMEM:Ham's F-12 medium supplemented with 2.5% charcoal-stripped FBS without antibiotic and left to attach for 1 d. Single and triple Sp siRNA knockdown (iSp1, iSp3, iSp4) along with iLamin as control was performed using LipofectAMINE™2000 transfection reagent as per the manufacturer's protocol to attain 100 nM concentration of siRNA in the media. Cells were left with the transfection mixture for 24-48 hrs before changing to fresh 2.5% DMEM-F12 media. Cells were harvested after 60-72 hrs for protein, mRNA or miRNA. miRNA was extracted using mirVana™ miRNA extraction kit (Applied Biosystems) according to manufacturer's protocol and was used to assess expression of various non-coding RNAs using different primers and determined by real-time PCR.
(Quantitative PCR measures a nucleic acid by following its amplification.)

Series [2] has as its system HOTTIP. As to the kind of experiment: HOTTIP expression in Panc1 cells. It is filed as cell-based, human. An excerpt: (§2) Using short interfering RNAs corresponding to SpTF genes for RNAi assays, expression of the SpTF were successfully knocked down. Sp1 was knocked down using an oligonucleotide with a sequence set forth herein as SEQ ID NO:19. Sp3 was knocked down using an oligonucleotide with a sequence set forth herein as SEQ ID NO:20. Sp4 was knocked down using an oligonucleotide with a sequence set forth herein as SEQ ID NO:21. […] FIG. 6B. In this assay, HOTAIRM was amplified and detected using forward and reverse oligonucleotide sequences set forth herein as SEQ ID NOS:3 and 4, respectively. Additionally, HOTTIP was amplified and detected using forward and reverse oligonucleotide sequences set forth herein as SEQ ID NOS:10 and 11, respectively.

The subject of series [3] is HOTAIRM1. As to the kind of experiment: HOTAIRM1 expression in Panc1 cells. Type of series: cell-based, human.
From the text: as §2

In series [4] the test system is Sp1, Sp3, and Sp4 mRNA. As to the kind of experiment: Sp1, Sp3, Sp4 mRNA knockdown in Panc1 cells. It is filed as cell-based, human. The settings on record: vs siCT.
From the text: as §2

Series [5] relates to HOTAIR. As to the kind of experiment: HOTAIR expression (RNA levels, real time PCR) in Panc1 cells. It is filed as cell-based, human. To be noted: for HOTAIR expression after siRNA transfection: vs siCT. As to the method: (§3) RNA isolation and quantitative PCR: Total RNA was extracted either from pancreatic cancer cell lines or from tissue samples. Five control and siRNA HOTAIR-transfected tissue samples were analyzed, respectively, from xenograft study using mirVana RNA isolation kit from Ambion (Austin, Tex., USA), and quantitative PCR was carried out using iCycler IQTM real-time PCR detection system (Bio-Rad, Hercules, Calif., USA) after reverse transcription to cDNAs. The RT primer sets for HOTAIR, PCDHB5, PCDH10, JAM2, LAMB3, ABL2, SNA1 and LAMC2 were used as described previously (Gupta, R. A., et al., “Long Non-Coding RNA HOTAIR Reprograms Chromatin State to Promote Cancer Metastasis,” Nature 464:1071-1076, 2010). The forward and reverse oligonucleotide primer sequences specifically for HOTAIR amplification and detection are also set forth herein as SEQ ID NOS:1 and 2, respectively.

Series [6] relates to miR-21 and miR-181b. The experiment in a line: Oncogenic miR levels in L3.6pL cells (real time PCR). Type of series: cell-based. The settings on record: 100 nM siRNA. As to the method: as §1
Series [7] deals with Panc28 cells. The experiment in a line: Cell proliferation of Panc28 cells after siRNA transfection. Type of series: cell-based, human. To be noted: 48 and 72 hours, vs siLamin.
The subject of series [8] is Panc1 cells. The experiment in a line: Cell proliferation (cell counting) of Panc1 cells after siRNA transfection. Type of series: cell-based, human. The settings on record: vs control oligonucleotide. How it is done: Cell proliferation and fluorescence-activated cell sorting analysis and apoptosis: Cells were seeded in 12-well plates and transfected with either appropriate siRNA or expression vectors, and cell numbers were counted at the indicated times using a Coulter Z1 cell counter (Beckman Coulter, Fullerton, Calif., USA). For fluorescence-activated cell sorting analysis, after pancreatic cancer cells were transfected with siRNAs for either control or HOTAIR, cells were stained with propidium iodide solution and were analyzed on a FACS Calibur Flow Cytometer (Becton Dickinsin Systems, Franklin Lakes, N.J., USA).

In series [9] the test system is L3.6pL cells. The experiment in a line: Xenograft of siRNA-transfected L3.6pL cells in nude mice. Type of series: in vivo. To be noted: vs siCT. As to the method:
Xenograft study: L3.6pL cells (6×10^4 ml) were transfected with 100 nM siHOTAIR or siCT using Lipofectamine. After 48 h cells were collected and 1×10^6 cells injected into either side of the flank area of female nude mice (Harlan), and tumor volumes and weights were determined in mice from the siHOTAIR (six mice) or siCT (six mice) groups as described, and siHOTAIR levels were determined by realtime PCR. Tumor volumes were measured (0.5×length×width^2) and after 16 days, the mice were killed and tumor weights were measured and also used for further analysis as described.
Immunohistochemistry and TUNEL assay: Tissue sections were deparaffinized in xylene and treated with graded series of alcohol and rehydrated in PBS. Antigen retrieval was done using 10 mM sodium citrate (pH 6.0-6.2) and endogenous peroxidase was blocked by 3% hydrogen peroxide in methanol for 6 min. Slides were then incubated with blocking serum (Vecstatin ABC Elite kit, Vector Laboratories, Burlingame, Calif., USA) for 45 min. Samples were then incubated overnight with Ki-67 and PCNA antibodies at 4° C. Sections were then washed in PBST and then incubated with biotinylated secondary antibody followed by streptavidin. The brown staining specific for antibody binding was developed by exposing the avidin and biotinylated peroxidase complex to diaminobenzidine reagent (Vector Laboratories) and sections were then counterstained with hematoxylin (Vector Laboratories). The in situ cell death detection POD kit was used for the TUNEL assay according to the instructions in the protocol for tissue sections.

The subject of series [10] is GDF15 promoter. As to the kind of experiment: GDF15 promoter luciferase assay in Panc1 cells. It is filed as cell-based, human. As to the method:
siRNA transfection and luciferase assay: Pancreatic cancer cells were transfected with 100 nM of control siRNA or HOTAIR siRNA I (available from Sigma Aldrich, catalogue No. SASI_Hs02—00380445) or HOTAIR siRNA II (available from Sigma Aldrich, catalogue No. SASI_Hs02—00380446) using Lipofectamine 2000 (Invitrogen, Grand Island, N.Y., USA). Panc1 cells were cotransfected with control siRNA or HOTAIR siRNA I and HOTAIR II, and various length of GDF15 luciferase constructs. Luciferase activities were measured after 24 h as described previously. MISSION siRNAs for EZH2 and Suz12 were also purchased from Sigma Aldrich.

Series [11] has as its system Panc1 cells. The experiment in a line: Annexin V apoptosis assay, Panc1. It is filed as cell-based, human. To be noted: Panc1 cells transfected with siRNA. As to the method: (§4) Boyden chamber cell invasion and apoptosis assays: Pancreatic cancer cells were transfected with either siRNAs (HOTAIR vs. control) or expression vectors (empty vs. HOTAIR) and cell invasion assay was performed as described previously. Cells were transfected with siCT or siHOTAIR and after 72 h, cells were stained for Annexin V using the Vibrant apoptosis assay kit as described.

For series [12], the system named is cyclin D1 and cyclin E. The experiment in a line: Cyclin D1 and cyclin E mRNA in L3.6pL cells. Type of series: cell-based. To be noted: L3.6pL cells (FIG. 2D). As to the method:
as §3

Series [13] relates to L3.6pL cells. The experiment in a line: Annexin V apoptosis assay, L3.6pL. Type of series: cell-based. To be noted: L3.6pL cells transfected with siRNA. How it is done: as §4
Series [14] relates to cyclin D1 and cyclin E. As to the kind of experiment: Cyclin D1 and cyclin E mRNA in Panc1 cells. It is filed as cell-based, human. To be noted: Panc1 cells (FIG. 2C). As to the method:
as §3

Series [15] has as its system miR-27a. The experiment in a line: miR-27a expression in Panc1 cells. Type of series: cell-based, human.
The test system of series [16] is miR-27a, ZBTB10. The settings on record: colon cancer cells; cited from earlier work.
Series [17] deals with ZBTB10. The experiment in a line: ZBTB10 expression in Panc1 cells. It is filed as cell-based, human.
Series [18] concerns Sp1, Sp3, and Sp4 proteins. As to the kind of experiment: Sp1, Sp3 and Sp4 protein expression in Panc1 cells. Type of series: cell-based, human.
Series [19] deals with MALAT-1. The experiment in a line: MALAT-1 expression (RNA abundance) in Panc1 cells. It is filed as cell-based, human. To be noted: doses of 5.0 and 7.0 μM. How it is done: (§5) MALAT-1 RNA was detected using forward and reverse oligonucleotides with sequences set forth herein as SEQ ID NOS:7 and 8. Furthermore, MALAT-1 can be detected in serum obtained from pancreatic cancer patients (not shown) and this correlates with the reported high expression of MALAT-1 in pancreatic tumors compared to non-tumor tissues. Subsequent MALAT-1 knockdown studies with RNA interference were conducted using two oligonucleotides (siMALAT-1a and siMALAT-1b), the sequences of which are set forth herein as SEQ ID NOS:5 and 6, respectively. […] Thus, MALAT-1 and MALAT-1-regulated genes play a role in pancreatic cancer cell growth. […] Additional studies on the role of MALAT-1 in cell survival and kinase signaling were performed, because both pathways are affected, in part, by overexpression of growth factors and activating RAS mutations. These aspects are common in many pancreatic cancer cell lines and tumors.

The test system of series [20] is ROS. As to the kind of experiment: ROS induction in pancreatic cancer cells. It is filed as cell-based. To be noted: pancreatic cancer cells (data not shown).
Series [21] has as its system MALAT-1. As to the kind of experiment: MALAT-1 expression (RNA abundance) in L3.6pL cells. To be noted: doses of 5.0 and 7.0 μM. Type of series: cell-based. How it is done: as §5

As to “siSp3: siRNA for Sp3, sequence SEQ ID NO:20 (GCGGCAGGUGGAGCCUUCACUTT; chemistry not given here)”, the miR-21 expression result in series [1] and in series [6] was “decrease” in each case. Moreover, the miR-181b expression result in series [1] and in series [6] was “decrease” throughout. Moreover, the HOTTIP expression entry in [2] is recorded as “significant decrease”. For the same compound, the HOTAIRM1 expression result in series [3] is recorded as “significant decrease”. Further, in [4], the “mRNA level of the respective Sp (Sp1, Sp3, Sp4)” value is reported as “decreased”. Further, the “HOTAIR expression after siRNA transfection” value in series [5] is reported as “significant decrease”.

As for “siMALAT-1b: siRNA for MALAT-1 knockdown, SEQ ID NO:6 (GAAUUCCGGUGAUGCGAGU; listed as RNA, chemistry not given here)”, the cell proliferation entry in [7] is recorded as “significant inhibition”. Also, in series [8], the “cell proliferation / cell growth” value was “significant inhibition”.

“siMALAT-1a: siRNA for MALAT-1 knockdown, SEQ ID NO:5 (GGCAAUAGAGGCCCUUAA; listed as RNA, chemistry not given here)”: the cell proliferation entry in series [7] is “significant inhibition”. For the same compound, the “cell proliferation / cell growth” value in series [8] is reported as “significant inhibition”.

Regarding “siHOTAIR II: HOTAIR siRNA II, Sigma Aldrich catalogue No. SASI_Hs02—00380446 (UGAACACGACUUGGUGUGGTT; chemistry not given here)”, the pancreatic tumor weight result in series [9] (after 16 days) was “dramatic decrease”. Besides, the “HOTAIR expression in tumors” value in series [9] (end of study) is listed as “dramatic decrease”. The pancreatic tumor volume entry in [9] (up to 16 days) is listed as “dramatic decrease”. Also, the “luciferase activity, GDF15 promoter constructs -3500 to +41, -1086 to +41 and -474 to +41” value in series [10] is listed as “decreased”. Further, the “Annexin V staining (apoptosis)” value in series [11] and in series [13] was “enhanced” throughout. In addition, the “expression of cyclin D1 and cyclin E” value in [12] and in [14] was “decreased expression” each time.

In the case of “siSp4: siRNA for Sp4, sequence SEQ ID NO:21 (GCAGUGACACAUUAGUGAGCTT; chemistry not given here)”, in [1], the miR-21 expression entry is “decrease” and the miR-181b expression entry is “decrease”. For the same compound, the HOTTIP expression result in series [2] is listed as “significant decrease”. Further, the HOTAIRM1 expression entry in series [3] is “significant decrease”. Moreover, the “mRNA level of the respective Sp (Sp1, Sp3, Sp4)” value in [4] was “decreased”. Also, in series [5], the “HOTAIR expression after siRNA transfection” value is “significant decrease”. Besides, in [6], the miR-21 expression result is recorded as “decrease” and the miR-181b expression entry is listed as “decrease”.

For the compound `COC(=O)[C@@]1(C)CCC2(C)CC[C@]3(C)C(=CC(=O)[C@@H]4C5(C)C=C(C#N)C(=O)C(C)(C)[C@@H]5CCC43C)C2C1` (stereo partly drawn) [CDODA-Me, methyl 2-cyano-3,11-dioxo-18β-olean-1,12-dien-30-oate], in series [15], the miR-27a entry is listed as “downregulation”. Also, in series [16], the ZBTB10 entry was “increased” and the “microRNA (miR)-27a” value is “decreased”. In addition, in series [17], the ZBTB10 expression entry is “induction”. In addition, the “Sp1, Sp3, and Sp4 proteins” value in [18] (24 hrs (FIG. 7A)) is listed as “downregulate”. For the same compound, the “Sp proteins after 48 hrs” value in series [18] (48 hrs) is listed as “almost non-detectable”. In [18] (cotreatment with DTT or GSH), the “induction of ZBTB10, downregulation of miR-27a and repression of Sp1, Sp3, Sp4 after cotreatment with antioxidants” value is given as “inhibited”. Also, the MALAT-1 expression entry in series [19] is on record as “significantly downregulate”. In series [5] (drug treatment, 24 hrs (FIG. 7B)), the HOTAIR expression entry is “decreased”. Also, the ROS entry in series [20] is reported as “induce ROS”. In addition, the MALAT-1 expression result in series [21] is “significantly downregulate”.
